Reference: PMC9268428, “Determination of the Highly Sensitive Carboxyl-Graphene Oxide-Based Planar Optical Waveguide Localized Surface Plasmon Resonance Biosensor” (Nanomaterials, 2022)
Counter-ions that a name gives are not always drawn.

Target: T1, streptavidin (Streptomyces avidinii, UniProt P22629)
T1 construct: free analyte in PBS
Assay: localized surface plasmon resonance on graphene-oxide optical waveguide, affinity constant from ka/kd
Type: binding
Settings: read-out: Kf (converted)
Source text: localized surface plasmon resonance on graphene-oxide optical waveguide, affinity constant from ka/kd on streptavidin | ka and kd of biotin binding with streptavidin were estimated to be

T1 sequence (P22629 25-183): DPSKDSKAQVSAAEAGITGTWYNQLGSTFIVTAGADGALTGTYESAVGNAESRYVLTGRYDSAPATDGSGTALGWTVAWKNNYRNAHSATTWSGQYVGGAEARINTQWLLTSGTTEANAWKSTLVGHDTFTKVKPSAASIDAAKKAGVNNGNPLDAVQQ

## NCCCNC(=O)CCCC[C@@H]1SC[C@@H]2NC(=O)N[C@@H]21 [N-(+)-biotinyl-3-aminopropylammonium trifluoroacetate]
  Kd: 137 pM
